{
  "source": "patent US20130079353A1",
  "about": "“FLUOROQUINOLONES FOR THE TREATMENT AND/OR PROPHYLAXIS OF INFLAMMATORY DISEASES” (priority 2009, published 2013)",
  "key": {"IL-4 [1]": {"tested_on": "IL-4", "experiment": "IL-4 gene expression, quantitative real-time SYBRGreen PCR (vs GAPDH)", "assay_type": "cell-based, human", "method": "(§1) Quantitative real-time-PCR was performed using the Power SYBR Green PCR Master Mix (Applied Biosystems). Gene expression was analyzed using the 7500 Real-Time PCR Systems and Sequence Detection Software version 1.2.2 (Applied Biosystems). IL-2 and IL-4 gene expression levels were normalized using glyceraldehyde-3-phosphat dehydrogenase (GAPDH) expression levels as an endogenous reference.\n(§2) The mean induction ratios were calculated.\n(§3) Total cellular RNA was isolated and reverse-transcribed. Expression of IL-2 (see FIG. 4A) and IL-4 (see FIG. 4B) was analyzed using quantitative real-time SYBRGreen PCR. IL-2 and IL-4 expression levels were estimated by gene expression ratio between IL-2 or IL-4 gene and GAPDH genes.\nTotal cellular RNA was isolated and reverse-transcribed. Expression of IL-2 (see FIG. 5A) and IL-4 (see FIG. 5B) was analyzed using quantitative real-time SYBRGreen PCR. IL-2 and IL-4 expression levels were estimated by gene expression ratio between IL-2 or IL-4 gene and GAPDH genes. Data are shown as fold increase of induction of gene expression, where anti-CD3 activated cells are compared with respective unstimulated controls.\n(§4) Next, the cells were activated via plate-bound anti-CD3 antibody for 1 h and the gene expression levels for IL-4 (sec FIGS. 6A and 13), IL-2 (see FIGS. 6C and D) and CD95L (see FIGS. 6E and F) were assayed. […] A clear inhibition of TCR induced up-regulation of IL-4, IL-2 and CD95L was detected."}, "IL-2 [2]": {"tested_on": "IL-2", "experiment": "IL-2 gene expression, quantitative real-time SYBRGreen PCR (vs GAPDH)", "assay_type": "cell-based, human", "method": "as §1, §2, §3\nTotal cellular RNA was isolated and reverse-transcribed. Expression of IL-2 (see FIG. 5A) and IL-4 (see FIG. 5B) was analyzed using quantitative real-time SYBRGreen PCR. IL-2 and IL-4 expression levels were estimated by gene expression ratio between IL-2 or IL-4 gene and GAPDH genes. […]\nas §4"}, "[3]": {"tested_on": "PHA-activated human T-cells", "settings": "short-term (up to 96 hours) or simultaneous treatment; cited from earlier work"}, "IL-2 [4]": {"tested_on": "IL-2", "settings": "short-term (up to 96 hours) or simultaneous treatment, PHA-activated human T-cells; cited from earlier work"}, "citrate synthase": {"tested_on": "citrate synthase", "experiment": "Activity of citrate synthase in treated T-cells", "assay_type": "cell-based", "settings": "prolonged, long-term treatment of pre-activated human T-cells", "method": "(§5) Activities of the respiratory chain single enzyme complexes I and II, as well as of citrate synthase, were measured as described previously with minor modifications. Ciprofloxacin-treated cells were depleted of dead cells via Biocoll (Biochrom) gradient centrifugation. The cell number in different batches of ciprofloxacin-treated cells was equalized. For measurement of the enzymatic activities, samples were prepared as described previously with minor modifications. 4×10^7 cells were washed with PBS, shock-frozen in liquid nitrogen and thawed on ice. Next, cells were permeabilized by 15 min incubation with 1 ml of 0.015% digitonin (w/v) in respiratory chain (RC) buffer (250 mM sucrose, 50 mM KCl, 5 mM MgCl2, 20 mM Tris-HCl, pH 7.4), washed with RC buffer and centrifuged at 8 000 rpm for 5 min at 4° C. For a single data point the activity measurement was performed three times in triplicates and the average value was calculated. Steady state activity was recorded in a 96-well plate spectrophotometer using a thermostated chamber and a final volume of 300 μl. Enzymatic activities of complex I and complex II were recorded as NADH oxidation at 340-400 nm and as succinate oxidation at 610-750 nm, respectively. Citrate synthase activity was detected after two additional freeze/thaw cycles as 5,5′-dithiobis-(2-nitrobenzoic acid) (DTNB) reduction at 412 nm."}, "CD95L": {"tested_on": "CD95L", "experiment": "CD95L gene expression, quantitative real-time SYBRGreen PCR (vs GAPDH)", "assay_type": "cell-based, human", "settings": "T-cells from patients with atopic dermatitis, 50 μg/ml for 7 days, anti-CD3 for 1 h", "method": "as §1, §4"}, "[5]": {"tested_on": "complex II (succinate dehydrogenase)", "experiment": "Activity of complex II in treated T-cells", "assay_type": "cell-based", "settings": "prolonged, long-term treatment of pre-activated human T-cells", "method": "as §5"}, "IL-4 [6]": {"tested_on": "IL-4", "experiment": "Activation-induced IL-4 secretion, ELISA", "assay_type": "cell-based, human", "settings": "50 μg/ml for 7 days, anti-CD3 (30 μg/ml) and anti-CD28 (1 μg/ml) for 16 h", "method": "IL-2 and IL-4 concentrations were measured by enzyme-linked immunosorbent (ELISA) assay (BD OptEIA Set Human IL-2/IL-4, Becton Dickinson). Resting peripheral human T-cells (“day 0” T-cells)+/−rotenone (10 μg/ml, 15 min pre-treatment) were stimulated with plate-bound anti-CD3 monoclonal antibody (30 μg/ml) and soluble anti-CD28 monoclonal antibody (1 μg/ml) for 4 h. Next, the supernatants were cleared by centrifugation and the measurements were performed according to the manufacturer's instructions.\nHuman peripheral blood T-cells from healthy donors or patients with atopic dermatitis were pre-activated by PHA treatment and subsequently cultured for 7 days in presence or absence of 50 μg/ml cipro. Next, T-cells were activated via plate-bound anti-CD3 antibody (30 μg/ml) and soluble anti-CD28 antibody (1 μg/ml) for 16 h. Supernatants were harvested and secreted amounts of IL-4 were measured by ELISA. […] Therefore, inhibition of IL-4 transcription is not compensated by translational or post translational mechanisms."}, "[7]": {"tested_on": "mitochondrial respiratory complex I (NADH-quinone oxidoreductase)", "experiment": "Activity of mitochondrial respiratory complex I in treated T-cells, real-time spectrophotometry", "assay_type": "cell-based, human", "settings": "PHA-pre-activated T-cells treated 7 days; 15 min, 20° C.; normalized to total protein content; three donors", "method": "as §5, with “Next, cells were permeabilized by 15 min incubation with 1 ml of 0.015% digitonin (w/v) in respiratory chain (RC) buffer (250 mM sucrose, 50 mM KCl, 5 mM MgCl2, 20 mM Tris-HCl, pH 7.4), washed with RC buffer and centrifuged at 8 000 rpm for 5 min at 4° C.” left out\nPHA-pre-activated and treated T-cells (see Example 2.1) were shock-frozen in liquid nitrogen. Next, activity of mitochondrial respiratory complex I (NADH-quinone oxidoreductase) was measured by real-time spectrophotometry. […]"}, "[8]": {"tested_on": "activation-induced ROS generation in pre-activated primary human T-cells", "experiment": "Activation-induced ROS generation, H2DCF-DA staining and FACS", "assay_type": "cell-based", "settings": "PHA-pre-activated T-cells, 7 days of Cipro treatment, plate-bound anti-CD3 (30 μg/ml), 1 h after activation", "method": "Cells were stained with H2DCF-DA (5 μM) for 30 min. Next, cells were then divided and stimulated with either plate-bound anti-CD3 antibody (30 μg/ml) or PMA (10 ng/ml). Treatment was terminated by ice-cold PBS and ROS generation was determined by FACS analysis. If not stated otherwise, ROS generation was quantified as the increase in mean fluorescence intensity (MFI), calculated according to the following formula: increase in\nMFI(%)=[(MFIstimulated−MFIunstimulated)/MFIunstimulated]×100 9.\nAfter PHA-pre-activated and 7 days of Cipro treatment, T-cells were stained with redox sensitive fluorescent probe H2DCF-DA (20 min, 37° C.) and subsequently activated via plate-bound agonistic anti-CD3 antibody (30 μg/ml). The level of activation-induced ROS was assessed by FACS measurement 1 h after activation and calculated as percentage increase in MFI (untreated control set to 100%)."}, "[9]": {"settings": "PHA-pre-activated primary human T-cells, different amounts of ciprofloxacin for 7 days, not restimulated"}, "[10]": {"settings": "T-cells from patients with atopic dermatitis, 50 μg/ml for 7 days, anti-CD3 for 1 h"}},
  "data": [
    {"smiles": "O=C(O)c1cn(C2CC2)c2cc(N3CCNCC3)c(F)cc2c1=O", "note": "[ciprofloxacin, 1-cyclopropyl-6-fluoro-1,4-dihydro-4-oxo-7-(1-piperazinyl)-3-quinoline-carboxylic acid]", "values": [
      {"measurement": "basal IL-4 levels, treated PHA-pre-activated T cells vs \"day 0\" T cells", "setting": "IL-4 [1]; 5 healthy donors, 50 μg/ml for 7 days, P<0.05 (0.03125)", "value": "significant down-regulation"},
      {"measurement": "basal IL-4 levels, treated PHA-pre-activated T cells vs \"day 0\" T cells", "setting": "IL-4 [1]; 7 patients with atopic dermatitis, 50 μg/ml for 7 days, P<0.01 (0.00781)", "value": "significant down-regulation"},
      {"measurement": "basal IL-4 expression", "setting": "IL-4 [1]; [9]", "value": "increases basal IL-2 and IL-4 expression slightly"},
      {"measurement": "anti-CD3-induced increase in IL-4 transcripts levels", "setting": "IL-4 [1]; [10]", "value": "clearly blocked"},
      {"measurement": "basal IL-2 expression", "setting": "IL-2 [2]; [9]", "value": "increases basal IL-2 and IL-4 expression slightly"},
      {"measurement": "anti-CD3-induced increase in IL-2 transcripts levels", "setting": "IL-2 [2]; [10]", "value": "clearly blocked"},
      {"measurement": "proliferation of PHA-activated human T-cells", "setting": "[3]", "value": "enhanced"},
      {"measurement": "IL-2 secretion", "setting": "IL-2 [4]", "value": "enhanced"},
      {"measurement": "activity of citrate synthase", "setting": "citrate synthase", "value": "unaffected"},
      {"measurement": "anti-CD3-induced increase in CD95L transcripts levels", "setting": "CD95L", "value": "clearly blocked"},
      {"measurement": "activity of complex II (succinate dehydrogenase)", "setting": "[5]", "value": "unaffected"},
      {"measurement": "CD3/CD28 triggering-induced IL-4 secretion", "setting": "IL-4 [6]; T-cells from healthy donors", "value": "blocked"},
      {"measurement": "CD3/CD28 triggering-induced IL-4 secretion", "setting": "IL-4 [6]; T-cells from patients with atopic dermatitis", "value": "blocked"},
      {"measurement": "activity of mitochondrial respiratory complex I", "setting": "[7]", "value": "impaired activity"},
      {"measurement": "activation-induced ROS generation", "setting": "[8]", "value": "blocks"}
    ]}
  ]
}
